Test results published in patent publication US10287305B2, “Substituted piperidine compound and use thereof” (Takeda Pharmaceutical Company Limited, priority 2016, dated 2019).

Molecular target: human orexin type 2 receptor (hOX2R) (Homo sapiens (Human), UniProt O43614)
Assay: Measurement of orexin type 2 receptor agonist activity (Experimental Example 2-1, FLIPR TETRA, intracellular Ca2+)
Type: cell-based
Conditions: CHO dhfr- cells expressing hOX2R, FLIPR TETRA, Fluo-4AM; for Emax: read-out: Emax (%)

Sequence of human orexin type 2 receptor (hOX2R) (O43614 whole entry): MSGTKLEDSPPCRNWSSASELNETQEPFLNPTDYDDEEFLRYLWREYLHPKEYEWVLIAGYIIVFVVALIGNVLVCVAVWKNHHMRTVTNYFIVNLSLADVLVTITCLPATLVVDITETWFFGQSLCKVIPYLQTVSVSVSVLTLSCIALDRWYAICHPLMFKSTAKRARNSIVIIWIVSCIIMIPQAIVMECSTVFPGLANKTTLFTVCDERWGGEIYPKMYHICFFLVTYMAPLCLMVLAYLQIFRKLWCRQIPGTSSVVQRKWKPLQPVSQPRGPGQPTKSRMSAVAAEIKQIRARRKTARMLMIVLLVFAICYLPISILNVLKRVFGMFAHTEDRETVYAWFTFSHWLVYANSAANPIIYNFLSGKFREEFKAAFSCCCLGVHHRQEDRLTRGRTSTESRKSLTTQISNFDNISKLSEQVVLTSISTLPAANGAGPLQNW

| Structure (SMILES) | EC50 [nM] | Emax [%] | Emax (%) |
| --- | --- | --- | --- |
| CC(=O)N1CCC[C@H](NS(C)(=O)=O)[C@@H]1CO[C@H]1CC[C@@H](c2cc(F)cc(F)c2F)CC1 [Example 243, N-((2R,3S)-1-acetyl-2-(((cis-4-(2,3,5-trifluorophenyl)cyclohexyl)oxy)methyl)piperidin-3-yl)methanesulfonamide] | 17 | 97 | – |
| COC(=O)N1CCC[C@H](NS(C)(=O)=O)[C@@H]1CO[C@H]1CC[C@@H](c2cc(F)cc(F)c2F)CC1 [Example 244, methyl (2R,3S)-3-((methylsulfonyl)amino)-2-(((cis-4-(2,3,5-trifluorophenyl)cyclohexyl)oxy)methyl)piperidine-1-carboxylate] | 2.6 | 97 | – |
| CS(=O)(=O)N[C@H]1CCCN(C(=O)C2CC2)[C@H]1CO[C@H]1CC[C@@H](c2cc(F)cc(F)c2F)CC1 [Example 245, N-((2R,3S)-1-(cyclopropylcarbonyl)-2-(((cis-4-(2,3,5-trifluorophenyl)cyclohexyl)oxy)methyl)piperidin-3-yl)methanesulfonamide] | 2 | 97 | – |
| CS(=O)(=O)N[C@H]1CCCN(C(=O)C2CC2)[C@H]1COC1CCN(c2ccccc2F)CC1 [Example 246, N-((2R,3S)-1-(cyclopropylcarbonyl)-2-(((1-(2-fluorophenyl)piperidin-4-yl)oxy)methyl)piperidin-3-yl)methanesulfonamide] | 730 | 113 | – |
| CS(=O)(=O)N[C@H]1CCCN(C(=O)C2CC2)[C@H]1CO[C@H]1CC[C@@H](c2cccc(F)c2F)CC1 [Example 250, N-((2R,3S)-1-(cyclopropylcarbonyl)-2-(((cis-4-(2,3-difluorophenyl)cyclohexyl)oxy)methyl)piperidin-3-yl)methanesulfonamide] | 1.7 | 105 | – |
| COC(=O)N1CCC[C@H](NS(C)(=O)=O)[C@@H]1CO[C@H]1CC[C@@H](c2c(F)ccc(F)c2F)CC1 [Example 257, methyl (2R,3S)-3-((methylsulfonyl)amino)-2-(((cis-4-(2,3,6-trifluorophenyl)cyclohexyl)oxy)methyl)piperidine-1-carboxylate] | – | 97 | – |
| CS(=O)(=O)N[C@H]1CCCN(C(=O)C2CC2)[C@H]1CO[C@H]1CC[C@@H](c2c(F)ccc(F)c2F)CC1 [Example 258, N-((2R,3S)-1-(cyclopropylcarbonyl)-2-(((cis-4-(2,3,6-trifluorophenyl)cyclohexyl)oxy)methyl)piperidin-3-yl)methanesulfonamide] | 0.72 | 101 | – |
| CS(=O)(=O)N[C@H]1CCCN[C@H]1CO[C@H]1CC[C@@H](c2ccccc2F)CC1 [Example 260, N-((2R,3S)-2-(((cis-4-(2-fluorophenyl)cyclohexyl)oxy)methyl)piperidin-3-yl)methanesulfonamide] | 550 | 99 | – |
| CC(C)OC(=O)N1CCC[C@H](NS(C)(=O)=O)[C@@H]1CO[C@H]1CC[C@@H](c2cccc(F)c2)CC1 [Example 264, isopropyl (2R,3S)-2-(((cis-4-(3-fluorophenyl)cyclohexyl)oxy)methyl)-3-((methylsulfonyl)amino)piperidine-1-carboxylate] | 21 | 91 | – |
| COC(=O)N1CCC[C@H](NS(C)(=O)=O)[C@@H]1CO[C@H]1CC[C@@H](c2ccccc2F)CC1 [Example 267, methyl (2R,3S)-2-(((cis-4-(2-fluorophenyl)cyclohexyl)oxy)methyl)-3-((methylsulfonyl)amino)piperidine-1-carboxylate] | 3.4 | 94 | – |
| CS(=O)(=O)N[C@H]1CCCN(C(=O)C2CC2)[C@H]1CO[C@H]1CC[C@@H](c2ccccc2F)CC1 [Example 268, N-((2R,3S)-1-(cyclopropylcarbonyl)-2-(((cis-4-(2-fluorophenyl)cyclohexyl)oxy)methyl)piperidin-3-yl)methanesulfonamide] | 1.5 | 103 | – |
| CS(=O)(=O)N[C@H]1CCCN(C(=O)OC2CC2)[C@H]1CO[C@H]1CC[C@@H](c2cccc(F)c2)CC1 [Example 272, cyclopropyl (2R,3S)-2-(((cis-4-(3-fluorophenyl)cyclohexyl)oxy)methyl)-3-((methylsulfonyl)amino)piperidine-1-carboxylate] | 28 | 96 | – |
| COC(=O)N1CCC[C@H](NS(C)(=O)=O)[C@@H]1CO[C@H]1CC[C@@]2(CC1)OCc1ccccc12 [Example 274, methyl cis-3-((methylsulfonyl)amino)-2-(((1r,4′r)-3H-spiro[2-benzofuran-1,1′-cyclohexan]-4′-yloxy)methyl)piperidine-1-carboxylate] | 260 | 118 | – |
| COC(=O)N1CCC[C@H](NS(C)(=O)=O)[C@@H]1CO[C@H]1CC[C@]2(CC1)OCc1ccccc12 [Example 275, methyl cis-3-((methylsulfonyl)amino)-2-(((1s,4′s)-3H-spiro[2-benzofuran-1,1′-cyclohexan]-4′-yloxy)methyl)piperidine-1-carboxylate] | 3100 | 87 | – |
| CS(=O)(=O)N[C@H]1CCCN(C(=O)OCC(F)(F)F)[C@H]1CO[C@H]1CC[C@@H](c2cccc(F)c2)CC1 [Example 276, 2,2,2-trifluoroethyl (2R,3S)-2-(((cis-4-(3-fluorophenyl)cyclohexyl)oxy)methyl)-3-((methylsulfonyl)amino)piperidine-1-carboxylate] | – | 95 | – |
| COC(=O)N1CCC[C@H](NS(C)(=O)=O)[C@@H]1CO[C@H]1CC[C@@H](c2ccccc2OC)CC1 [Example 277, methyl (2R,3S)-2-(((cis-4-(2-methoxyphenyl)cyclohexyl)oxy)methyl)-3-((methylsulfonyl)amino)piperidine-1-carboxylate] | 2.9 | 95 | – |
| CCNC(=O)N1CCC[C@H](NS(C)(=O)=O)[C@@H]1CO[C@H]1CC[C@@H](c2ccccc2C(F)(F)F)CC1 [Example 282, (2R,3S)-N-ethyl-3-((methylsulfonyl)amino)-2-(((cis-4-(2-(trifluoromethyl)phenyl)cyclohexyl)oxy)methyl)piperidine-1-carboxamide] | 0.55 | – | 93 |
| CS(=O)(=O)N[C@H]1CCCN(C(=O)CO)[C@H]1CO[C@H]1CC[C@@H](c2ccccc2C(F)(F)F)CC1 [Example 283, N-((2R,3S)-1-glycoloyl-2-(((cis-4-(2-(trifluoromethyl)phenyl)cyclohexyl)oxy)methyl)piperidin-3-yl)methanesulfonamide] | 8.9 | 95 | – |
| COc1ccccc1[C@H]1CC[C@@H](OC[C@H]2[C@@H](NS(C)(=O)=O)CCCN2C(C)=O)CC1 [Example 291, N-((2R,3S)-1-acetyl-2-(((cis-4-(2-methoxyphenyl)cyclohexyl)oxy)methyl)piperidin-3-yl)methanesulfonamide] | 26 | 98 | – |
| CCOC(=O)N1CCC[C@H](NS(C)(=O)=O)[C@@H]1CO[C@H]1CC[C@@H](c2ccccc2)CC1 [Example 303, ethyl (2R,3S)-3-((methylsulfonyl)amino)-2-(((cis-4-phenylcyclohexyl)oxy)methyl)-piperidine-1-carboxylate] | 15 | 102 | – |
| COc1cccc([C@H]2CC[C@@H](OC[C@H]3[C@@H](NS(C)(=O)=O)CCCN3C(=O)C3CC3)CC2)c1 [Example 304, N-((2R,3S)-1-(cyclopropylcarbonyl)-2-(((cis-4-(3-methoxyphenyl)cyclohexyl)oxy)-methyl)piperidin-3-yl)methanesulfonamide] | 23 | 105 | – |
| CS(=O)(=O)N[C@H]1CCCN(C(=O)OCC(F)(F)F)[C@H]1COC1CCN(c2ncccn2)CC1 [Example 305, 2,2,2-trifluoroethyl (2R,3S)-3-((methylsulfonyl)amino)-2-(((1-(pyrimidin-2-yl)piperidin-4-yl)oxy)methyl)piperidine-1-carboxylate] | 53 | – | 106 |
| CS(=O)(=O)N[C@H]1CCCN(C(=O)CC(F)(F)F)[C@H]1CO[C@H]1CC[C@@H](c2ccccc2)CC1 [Example 306, N-((2R,3S)-2-(((cis-4-phenylcyclohexyl)oxy)methyl)-1-(3,3,3-trifluoropropanoyl)piperidin-3-yl)methanesulfonamide] | 13 | 101 | – |
| COC(=O)N1CCC[C@H](NS(=O)(=O)N(C)C)[C@@H]1CO[C@H]1CC[C@@H](c2ccccc2)CC1 [Example 309, methyl (2R,3S)-3-((dimethylsulfamoyl)amino)-2-(((cis-4-phenylcyclohexyl)oxy)methyl)-piperidine-1-carboxylate] | 3.1 | 106 | – |
| CN(C)S(=O)(=O)N[C@H]1CCCN(C(=O)C2CC2)[C@H]1CO[C@H]1CC[C@@H](c2ccccc2)CC1 [Example 310, N′-((2R,3S)-1-(cyclopropylcarbonyl)-2-(((cis-4-phenylcyclohexyl)oxy)methyl)-piperidin-3-yl)-N,N-dimethylsulfuric diamide] | 2.2 | 101 | – |
| CCc1ccccc1[C@H]1CC[C@@H](OC[C@H]2[C@@H](NS(C)(=O)=O)CCCN2C(C)=O)CC1 [Example 312, N-((2R,3S)-1-acetyl-2-(((cis-4-(2-ethylphenyl)cyclohexyl)oxy)methyl)-piperidin-3-yl)methanesulfonamide] | 32 | 98 | – |
| Cc1ccccc1[C@H]1CC[C@@H](OC[C@@H]2NCCC[C@@H]2NS(C)(=O)=O)CC1 [Example 318, N-((2R,3S)-2-(((cis-4-(2-methylphenyl)cyclohexyl)oxy)-methyl)piperidin-3-yl)methanesulfonamide] | 1100 | 99 | – |
| CC(=O)N1CCC[C@H](NS(C)(=O)=O)[C@@H]1CO[C@H]1CC[C@@H](c2ccccc2C)CC1 [Example 319, N-((2R,3S)-1-acetyl-2-(((cis-4-(2-methylphenyl)cyclohexyl)oxy)-methyl)piperidin-3-yl)methanesulfonamide] | 29 | 106 | – |
| CS(=O)(=O)N[C@H]1CCCN[C@H]1CO[C@H]1CC[C@@H](c2ccccc2C(F)F)CC1 [Example 320, N-((2R,3S)-2-(((cis-4-(2-(difluoromethyl)phenyl)cyclohexyl)-oxy)methyl)piperidin-3-yl)methanesulfonamide] | 2000 | 74 | – |
